Measurements published in patent US20200330444A1, “[…] FOR TREATING PAIN AND RELATED DISEASES AND CONDITIONS, AND COMPOSITIONS AND METHODS THEREOF” (NeuForm Pharmaceuticals, Inc., priority 2016, published 2020).

What was measured:
CYP2D6 = CYP2D6 (Homo sapiens, UniProt P10635); assay: In vitro metabolic stability on incubation with CYP2D6; format: in vitro ADME
Protocol: (§1) The stability time course samples were prepared and extracted immediately by protein precipitation method using acetonitrile containing 575 ng/mL carbutamide, 100 ng/mL loxapine and 10 ng/mL longdaysin as the internal standard (IS). The samples were analyzed on a Waters Acquity UPLC system coupled with a mass dspectrometer. The peak area ratios of respective extracted ion chromatograms were used for relative comparison.
(§2) 300 μL of the above 2.0 μM combo solutions were added into 1.5 mL of Eppendof tubes. The samples were put in 37° C. incubator for 10 minutes. Then 300 of 37° C. pre-warmed 0.35 mg/mL of human liver microsome (or 37.5 pmol/mL CYP3A4, or 25 pmol/mL CYP2D6) and 2.6 mM NADPH in 100 mM potassium phosphate buffer pH 7.4 (contains 3.3 mM MgCl2) was added to initiate the enzyme activity. 50.0 μL of the reaction mixture was put into 150 μL of acetonitrile with 100 ng/mL loxapine, 10 ng/ml longdaysin (IS) to stop the reaction at 0′, 15′, 30′, 60′, 2 hours, 3 hours and 4 hours. The samples were vortexed and centrifuged at 13,000 g for approximately 5 min, then supernatants were taken and stored in −20° C. freezer. After the last samples were taken and they were placed in −20° C. at least 1 hour. All samples were put into a refrigerator at approximate 4° C. for 30 min. The samples were vortexed. […]

[1] = In vitro metabolic stability in human liver microsome suspensions; format: in vitro ADME
Protocol: as §1, §2

CYP2D6, sequence (P10635 whole entry): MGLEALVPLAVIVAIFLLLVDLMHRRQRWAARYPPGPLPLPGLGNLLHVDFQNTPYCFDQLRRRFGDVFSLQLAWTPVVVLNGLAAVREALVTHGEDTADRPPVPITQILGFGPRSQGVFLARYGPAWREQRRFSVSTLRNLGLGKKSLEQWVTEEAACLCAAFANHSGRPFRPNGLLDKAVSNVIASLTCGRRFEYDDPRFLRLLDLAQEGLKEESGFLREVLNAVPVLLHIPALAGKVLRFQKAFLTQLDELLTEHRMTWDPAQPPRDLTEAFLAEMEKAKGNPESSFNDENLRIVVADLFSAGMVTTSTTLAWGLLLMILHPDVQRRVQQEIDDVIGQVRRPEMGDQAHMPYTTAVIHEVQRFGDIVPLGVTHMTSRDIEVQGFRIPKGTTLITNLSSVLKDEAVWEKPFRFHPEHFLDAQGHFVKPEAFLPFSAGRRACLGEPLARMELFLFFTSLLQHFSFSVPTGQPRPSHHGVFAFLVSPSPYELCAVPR

Structure (SMILES)	Half-life increased by, vs oliceridine (CYP2D6) [%]	Concentration after incubation higher than that of the non-deuterated compound ([1]; human liver microsome, 60 min) [%]	Half-life increased by, vs oliceridine ([1]; incubation with human liver microsome) [%]
[2H]C([2H])(C[C@@]1(c2ccccn2)CCOC2(CC([2H])([2H])C([2H])([2H])C2)C1)NCc1sccc1OC [D6-Oliceridine-a]	200	32	29
[2H]C([2H])(C[C@@]1(c2ccccn2)CC([2H])([2H])OC2(CC([2H])([2H])C([2H])([2H])C2)C1)NCc1sccc1OC [D8-oliceridine]	200		
